Data as given in patent publication US11306063B2, “Heterocyclic naphthoquinones derivatives for use in the treatment of cancers including Cushing disease” (Commissariat a l'Energie Atomique et aux Energies …, priority 2016, dated 2022).
Where two headings read alike, the source gives them in different places.

Tests used:
[1] = biological target: T1, USP2^CD (purified catalytic domain of USP2) (Homo sapiens, UniProt O75604); assay: Inhibition of purified USP2^CD enzymatic activity (Ub-AMC or Ub-Rho substrate); assay type: biochemical; details: for inhibition at 0.01 µM: 0.01 μM compound; for inhibition at 0.05 µM: 0.05 μM compound; for inhibition at 0.1 µM: 0.1 μM compound; for inhibition at 0.5 µM: 0.5 μM compound; for inhibition at 1 µM: 1 μM compound; for inhibition at 5 µM: 5 μM compound; for inhibition at 10 µM: 10 μM compound; for inhibition at 25 µM: 25 μM compound; for inhibition at 50 µM: 50 μM compound; for IC50: read-out: IC50 USP2 CD
T1 construct: The purified catalytic domain of USP2 (USP2^CD, in-house purified); His; made in house; host or cells: E. coli BL21 Gold
T1 sequence (O75604 267-599 limits assumed): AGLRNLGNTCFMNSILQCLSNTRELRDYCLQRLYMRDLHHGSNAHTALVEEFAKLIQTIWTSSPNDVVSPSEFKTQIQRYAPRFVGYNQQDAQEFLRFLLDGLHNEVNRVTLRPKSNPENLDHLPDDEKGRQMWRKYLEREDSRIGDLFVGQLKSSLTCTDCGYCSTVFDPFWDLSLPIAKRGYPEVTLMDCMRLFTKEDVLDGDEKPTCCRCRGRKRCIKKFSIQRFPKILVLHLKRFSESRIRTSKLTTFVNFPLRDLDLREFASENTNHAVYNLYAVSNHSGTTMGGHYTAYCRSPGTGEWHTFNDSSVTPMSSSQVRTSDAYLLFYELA
Description: (§1) USP2CD or USP8CD were expressed in E. coli BL21 Gold. Cells were grown in LB Miller to mid-log phase and induced by addition of 0.5 mM IPTG for USP2CD for 5 h at 20° C., while 1 mM IPTG was added for USP8CD for 3 h at 37° C. Then, cells were harvested and frozen at −80° C.
For His-tagged USP2CD, cells were resuspended in buffer C (10 mM TRIS pH 8.0, 100 mM NaCl, 10 mM Imidazole) and lysed using a sonicator. The lysate was clarified by centrifugation and applied to Ni Sepharose6 Fast Flow resin (GE Healthcare). The resin was sequentially washed with buffer C, then with buffer C containing 50 mM Imidazole. Protein sample was eluted from the resin using buffer C containing 250 mM Imidazole. The eluted protein was buffer exchanged by gel-filtration on a Superdex 200 10/300 GL column (GE Healthcare) equilibrated in Buffer D (15 mM Bis-TRIS pH 6.0, 100 mM NaCl, 1 mM dithiothreitol (DTT)).
(§2) Enzymatic assay was performed in a HEPES buffer (50 mM pH7.6 1 mM DTT, 2% glycerol, 0.5 mM EDTA) or in a Tris buffer (40 mM pH7.4 1 mM DTT, 5% glycerol, 0.05 mg/ml BSA) respectively, following manufacturer's instructions. Compounds were added to the reaction mixture just prior to the substrate. The enzymatic reaction kinetics was monitored through the apparition of fluorescence due to the hydrolysis of the peptidyl Ub-AMC or Ub-Rho bound over 20 or 30 minutes.
(§3) Medium value out of duplicates is reported.

[2] = biological target: T2, USP8^CD (purified catalytic domain of USP8) (Homo sapiens, UniProt P40818); assay: Inhibition of purified USP8^CD enzymatic activity (Ub-AMC or Ub-Rho substrate); assay type: biochemical; details: for inhibition at 0.01 µM: 0.01 μM compound; for inhibition at 0.05 µM: 0.05 μM compound; for inhibition at 0.1 µM: 0.1 μM compound; for inhibition at 0.5 µM: 0.5 μM compound; for inhibition at 1 µM: 1 μM compound; for inhibition at 5 µM: 5 μM compound; for inhibition at 10 µM: 10 μM compound; for inhibition at 25 µM: 25 μM compound; for inhibition at 50 µM: 50 μM compound; for IC50: read-out: IC50 USP8 CD
T2 construct: the purified catalytic domain of USP8 (USP8^CD, in-house purified); made in house; host or cells: E. coli BL21 Gold
T2 sequence (P40818 777-1109 limits assumed): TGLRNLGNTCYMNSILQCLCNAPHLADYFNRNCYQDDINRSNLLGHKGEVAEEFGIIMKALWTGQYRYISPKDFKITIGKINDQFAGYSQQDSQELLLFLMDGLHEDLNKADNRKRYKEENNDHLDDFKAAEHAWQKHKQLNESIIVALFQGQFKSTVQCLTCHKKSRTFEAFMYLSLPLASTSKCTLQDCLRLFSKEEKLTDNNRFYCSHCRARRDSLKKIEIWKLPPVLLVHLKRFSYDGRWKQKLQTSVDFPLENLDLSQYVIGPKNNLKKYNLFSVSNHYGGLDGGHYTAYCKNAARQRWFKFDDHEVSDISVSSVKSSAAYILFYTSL
Description: as §1
For His-tagged USP8CD, cells were resuspended in buffer A (50 mM TRIS pH 8.0, 500 mM NaCl, 2 mM Imidazole) and lysed using a sonicator. The lysate was clarified by centrifugation and applied to Ni Sepharose6 Fast Flow resin (GE Healthcare). The resin was sequentially washed first with buffer A containing 10 mM Imidazole then with buffer A containing 20 mM Imidazole, and finally with buffer A containing 50 mM Imidazole. Protein sample was eluted from the resin using buffer A containing 300 mM Imidazole. The eluted protein was buffer exchanged by gel-filtration on a Superdex 200 10/300 GL column (GE Healthcare) equilibrated in Buffer B (20 mM HEPES pH 7.5, 300 mM NaCl, 2 mM dithiothreitol (DTT)).
as §2, §3

[3] = Ub-AMC substrate at 1 μM, Table 2b
[4] = Ub-Rhodamine substrate at 0.1 μM, Table 2c

inhibition at 0.01 µM ([1]; Table 1c) [%] | inhibition at 0.05 µM ([1]; Table 1c) [%] | inhibition at 0.1 µM ([1]; Table 1c) [%] | inhibition at 0.5 µM ([1]; Table 1c) [%] | inhibition at 1 µM ([1]; Table 1b) [%] | inhibition at 1 µM ([1]; Table 1c) [%] | inhibition at 5 µM ([1]; Table 1b) [%] | inhibition at 5 µM ([1]; Table 1c) [%] | inhibition at 10 µM ([1]; Table 1c) [%] | inhibition at 25 µM ([1]; Table 1b) [%] | inhibition at 50 µM ([1]; Table 1b) [%] | IC50 [1, 3] [nM] | inhibition at 0.01 µM ([2]; Table 1d) [%] | inhibition at 0.05 µM ([2]; Table 1d) [%] | inhibition at 0.1 µM ([2]; Table 1d) [%] | inhibition at 0.5 µM ([2]; Table 1d) [%] | inhibition at 1 µM ([2]; Table 1b) [%] | inhibition at 1 µM ([2]; Table 1d) [%] | inhibition at 5 µM ([2]; Table 1b) [%] | IC50 [2, 3] [nM] | also measured | SMILES
17 | -7 | 4 | 6 | 23 | 57 | 66 | 19 | 56 | 95 | 97 | > 10000 | 27 | 14 | 30 | 47 | 77 | 85 | 100 | 500 | IC50 [1, 4]: 650 nM; inhibition at 5 µM ([2]; Table 1d): 90%; inhibition at 10 µM ([2]; Table 1d): 98%; inhibition at 25 µM ([2]; Table 1b): 106%; inhibition at 50 µM ([2]; Table 1b): 103%; IC50 [2, 4]: 10 nM | CS(=O)(=O)Cc1nc2c(nc1CS(C)(=O)=O)C(=O)c1ccccc1C2=O [VIN6076]
 |  |  |  |  |  |  |  |  |  |  | 17000 |  |  |  |  |  |  |  | 4500 |  | O=C1c2ccccc2C(=O)c2nc(CBr)c(CBr)nc21 [PCR8132]
9 | -20 | -32 | -3 | 17 | -6 | 48 | 10 | 1 | 66 | 41 | > 10000 | -22 | 3 | -9 | 44 | 60 | 65 | 88 | 400 | inhibition at 5 µM ([2]; Table 1d): 76%; inhibition at 10 µM ([2]; Table 1d): 35%; inhibition at 25 µM ([2]; Table 1b): 102%; inhibition at 50 µM ([2]; Table 1b): 94%; IC50 [2, 4]: 400 nM | O=C1c2ccccc2C(=O)c2nc(CS(=O)(=O)c3cccc(F)c3)c(CS(=O)(=O)c3cccc(F)c3)nc21 [OVM13]
19 | 3 | 3 | 23 | 0 | 37 | 1 | -10 | 17 | 16 | 30 | > 10000 | 24 | 16 | 14 | 18 | 68 | 64 | 51 | 400 | inhibition at 5 µM ([2]; Table 1d): 52%; inhibition at 10 µM ([2]; Table 1d): 51%; inhibition at 25 µM ([2]; Table 1b): 70%; inhibition at 50 µM ([2]; Table 1b): 83%; IC50 [2, 4]: 400 nM | O=C1c2ccccc2C(=O)c2nc(CS(=O)(=O)c3cccc(Cl)c3)c(CS(=O)(=O)c3cccc(Cl)c3)nc21 [OVM15]
